Data taken from patent publication US9113629B2, “4-amino-6-(4-substituted-phenyl)-picolinates and 6-amino-2-(4-substituted-phenyl)-pyrimidine-4-carboxylates and their use as herbicides” (DOW AGROSCIENCES LLC, priority 2013, dated 2015).
Like-named read-outs stand apart in the source and are kept apart here.

How the values were obtained:
[1] = test system: Key Broadleaf Weed and Crop Species; assay: Post-emergent Test II herbicidal activity (Table 5); assay type: in vivo; conditions: post-emergence, 336 h, post-emergent, 14 days after application; for pest or weed control at 70 g/ha: 70 g ai/ha; for pest or weed control at 140 g/ha: 140 g ai/ha
Procedure, shortened: (§1)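 Foliar application at 187 L/ha to greenhouse-grown seedlings (first or second true leaf); subirrigation thereafter. Visual 0–100% injury at 14 d relative to untreated plants.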

[2] = test system: Key Grass and Sedge Weeds as well as Grass Crops; assay: Post-emergent Test II herbicidal activity (Table 6); assay type: in vivo; conditions: post-emergence, 336 h; for pest or weed control at 70 g/ha: application rate 70 g ai/ha; for pest or weed control at 140 g/ha: application rate 140 g ai/ha
Procedure, shortened: as §1

[3] = ABUTH: velvetleaf (Abutilon theophrasti), read-out: Visual Growth Reduction (%) 14 Days After Application ABUTH
[4] = AMARE: redroot pigweed (Amaranthus retroflexus), read-out: Visual Growth Reduction (%) 14 Days After Application AMARE
[5] = BRSNN: oilseed-rape, canola (Brassica napus), read-out: Visual Growth Reduction (%) 14 Days After Application BRSNN
[6] = CHEAL: lambsquarters (Chenopodium album), read-out: Visual Growth Reduction (%) 14 Days After Application CHEAL
[7] = EPHHL: wild poinsettia (Euphorbia heterophylla), read-out: Visual Growth Reduction (%) 14 Days After Application EPHHL
[8] = HELAN: sunflower (Helianthus annuus), read-out: Visual Growth Reduction (%) 14 Days After Application HELAN
[9] = VIOTR: wild pansy (Viola tricolor), read-out: Visual Growth Reduction (%) 14 Days After Application VIOTR
[10] = Triticum aestivum, TRZSS (wheat), read-out: Visual Growth Reduction (%) 14 Days After Application, TRZSS
[11] = CYPES: yellow nutsedge (Cyperus esculentus), read-out: Visual Growth Reduction (%) 14 Days After Application, CYPES
[12] = DIGSA: crabgrass (Digitaria sanguinalis), read-out: Visual Growth Reduction (%) 14 Days After Application, DIGSA
[13] = ECHCG: barnyardgrass (Echinochloa crus-galli), read-out: Visual Growth Reduction (%) 14 Days After Application, ECHCG
[14] = ORYSA: rice (Oryza sativa), read-out: Visual Growth Reduction (%) 14 Days After Application, ORYSA
[15] = SETFA: giant foxtail (Setaria faberi), read-out: Visual Growth Reduction (%) 14 Days After Application, SETFA
[16] = SORVU: grain sorghum (Sorghum vulgare), read-out: Visual Growth Reduction (%) 14 Days After Application, SORVU
[17] = ZEAMX: maize, corn (Zea mays), read-out: Visual Growth Reduction (%) 14 Days After Application, ZEAMX

COC(=O)c1nc(-c2ccc(Br)cc2F)cc(N)c1Cl [Compound 93]
30 to 44%: pest or weed control at 70 g/ha [1, 9]
85 to 94%: pest or weed control at 70 g/ha [1, 6] | pest or weed control at 70 g/ha [1, 8] | pest or weed control at 140 g/ha [1, 8] | pest or weed control at 70 g/ha [2, 13] | pest or weed control at 140 g/ha [2, 13] | pest or weed control at 70 g/ha [2, 16]
95 to 100%: pest or weed control at 70 g/ha [1, 3] | pest or weed control at 140 g/ha [1, 3] | pest or weed control at 70 g/ha [1, 4] | pest or weed control at 140 g/ha [1, 4] | pest or weed control at 140 g/ha [1, 6] | pest or weed control at 70 g/ha [1, 7] | pest or weed control at 140 g/ha [1, 7] | pest or weed control at 70 g/ha [2, 11] | pest or weed control at 140 g/ha [2, 11] | pest or weed control at 140 g/ha [2, 12] | pest or weed control at 140 g/ha [2, 16]
75 to 84%: pest or weed control at 70 g/ha [2, 12] | pest or weed control at 70 g/ha [2, 15] | pest or weed control at 140 g/ha [2, 15] | pest or weed control at 140 g/ha [2, 17]
45 to 59%: pest or weed control at 70 g/ha [2, 10] | pest or weed control at 140 g/ha [2, 10]
0 to 29%: pest or weed control at 70 g/ha [1, 5] | pest or weed control at 70 g/ha [2, 14] | pest or weed control at 140 g/ha [2, 14]
60 to 74%: pest or weed control at 140 g/ha [1, 5] | pest or weed control at 70 g/ha [2, 17]

Cc1c(-c2ccc(OC(F)F)cc2)nc(C(=O)O)c(Cl)c1N [Compound 94, 4-Amino-3-chloro-6-(4-(difluoromethoxy)phenyl)-5-methylpicolinic acid]
45 to 59%: pest or weed control at 140 g/ha [1, 4]
0 to 29%: pest or weed control at 70 g/ha [1, 3] | pest or weed control at 140 g/ha [1, 3] | pest or weed control at 70 g/ha [1, 4] | pest or weed control at 70 g/ha [1, 5] | pest or weed control at 140 g/ha [1, 5] | pest or weed control at 70 g/ha [1, 7] | pest or weed control at 140 g/ha [1, 7] | pest or weed control at 70 g/ha [1, 9] | pest or weed control at 140 g/ha [1, 9] | pest or weed control at 70 g/ha [2, 10] | pest or weed control at 140 g/ha [2, 10] | pest or weed control at 70 g/ha [2, 11] | pest or weed control at 140 g/ha [2, 11] | pest or weed control at 70 g/ha [2, 12] | pest or weed control at 140 g/ha [2, 12] | pest or weed control at 70 g/ha [2, 13] | pest or weed control at 140 g/ha [2, 13] | pest or weed control at 70 g/ha [2, 14] | pest or weed control at 140 g/ha [2, 14] | pest or weed control at 70 g/ha [2, 15] | pest or weed control at 140 g/ha [2, 15] | pest or weed control at 70 g/ha [2, 16] | pest or weed control at 140 g/ha [2, 16] | pest or weed control at 70 g/ha [2, 17] | pest or weed control at 140 g/ha [2, 17]
85 to 94%: pest or weed control at 70 g/ha [1, 6] | pest or weed control at 140 g/ha [1, 6] | pest or weed control at 70 g/ha [1, 8] | pest or weed control at 140 g/ha [1, 8]
